# Data taken from patent US8871208B2, “11-β-hydroxysteroid dehydrogenase type 1 (11β-HSD1) inhibitors and uses thereof” (AbbVie Inc., priority 2009, dated 2014).
# Where two headings read alike, the source gives them in different places.
# Columns and labels:
# [1] = molecular target: T1, truncated human 11β-HSD-1 enzyme (24-287AA) (Homo sapiens, UniProt P28845); test: Human 11β-HSD-1 enzymatic SPA assay; assay type: biochemical; conditions: human enzyme, SPA
# T1 construct: truncated human 11β-HSD-1 enzyme (24-287AA); made in house; host or cells: E. coli (lysate)
# Protocol: The ability of test compounds to inhibit human 11β-HSD-1 enzymatic activity in vitro was evaluated in a Scintillation Proximity Assay (SPA). […] The reaction was stopped by adding a non-specific 11β-HSD inhibitor, 18β-glycyrrhetinic acid. The tritiated cortisol was captured by a mixture of an anti-cortisol monoclonal antibody and SPA beads coated with anti-mouse antibodies. The reaction plate was shaken at room temperature and the radioactivity bound to SPA beads was then measured on a β-scintillation counter. The 11β-HSD-1 assay was carried out in 96-well microtiter plates in a total volume of 220 μl. […] In order to drive the reaction in the forward direction, 1 mM G-6-P was also added. Solid compound was dissolved in DMSO to make a 10 mM stock followed by a subsequent 10-fold dilution with 3% DMSO in Tris/EDTA buffer (pH 7.4). 22 μl of titrated compounds was then added in triplicate to the substrate. Reactions were initiated by the addition of 10 μl of 0.1 mg/ml E. coli lysates overexpressing 11β-HSD-1 enzyme. After shaking and incubating plates for 30 minutes at room temperature, reactions were stopped by adding 10 μl of 1 mM glycyrrhetinic acid. The product, tritiated cortisol, was captured by adding 10 μl of 1 μM monoclonal anti-cortisol antibodies and 100 μl SPA beads coated with anti-mouse antibodies. After shaking for 30 minutes, plates were read on a liquid scintillation counter Topcount. Percent inhibition was calculated based on the background and the maximal signal. Wells that contained substrate without compound or enzyme were used as the background, while the wells that contained substrate and enzyme without any compound were considered as maximal signal. Percent of inhibition of each compound was calculated relative to the maximal signal and IC50 curves were generated. This assay was applied to 11β-HSD-2 as well, whereby tritiated cortisol and NAD^+ were used as substrate and cofactor, respectively.
# 11βHSD-1 = 11βHSD-1 (Homo sapiens, UniProt P28845); conditions: cited from earlier work
# [2] = Table 1, Barf et al., Drugs of the Future 31(3), 231-243 (2006), read-out: IC50
# [3] = Table 3, Boyle et al., Expert Opin. Ther. Patents 19(6), 801-825 (2009), read-out: IC50
# [4] = Table 4, Webster et al., Expert Opin. Ther. Patents 17(12), 1407-1422 (2007), read-out: Ki
# [5] = Table 4, Webster et al., Expert Opin. Ther. Patents 17(12), 1407-1422 (2007), read-out: IC50
# [6] = Table 5, Boyle, Current Opinion in Drug Discovery & Development 2008, 11(4), 495-511, read-out: IC50
# Sequence of 11βHSD-1 (P28845 whole entry, species assumed): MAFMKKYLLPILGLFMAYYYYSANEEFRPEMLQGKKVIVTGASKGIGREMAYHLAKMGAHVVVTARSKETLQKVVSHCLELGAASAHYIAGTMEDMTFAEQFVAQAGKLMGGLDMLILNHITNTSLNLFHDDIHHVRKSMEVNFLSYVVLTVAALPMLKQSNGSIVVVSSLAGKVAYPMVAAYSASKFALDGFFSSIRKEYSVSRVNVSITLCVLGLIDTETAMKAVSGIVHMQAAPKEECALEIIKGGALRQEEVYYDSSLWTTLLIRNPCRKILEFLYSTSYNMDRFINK
# T1 sequence (P28845 24-287): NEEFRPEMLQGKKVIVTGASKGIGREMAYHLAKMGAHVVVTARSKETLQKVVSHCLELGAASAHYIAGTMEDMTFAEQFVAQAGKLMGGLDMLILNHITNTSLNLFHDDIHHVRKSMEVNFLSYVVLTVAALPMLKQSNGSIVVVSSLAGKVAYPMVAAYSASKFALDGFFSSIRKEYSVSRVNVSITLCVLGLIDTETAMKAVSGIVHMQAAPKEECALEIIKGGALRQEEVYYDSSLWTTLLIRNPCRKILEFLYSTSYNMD
smiles,measurement,setting,value
C[S+]([O-])[C@]12C[C@@H]3C[C@H](C1)[C@@H](NC(=O)C(C)(C)Oc1ccc(F)cc1Cl)[C@@H](C3)C2 (stereo partly shown) [2-(2-chloro-4-fluorophenoxy)-2-methyl-N-[(E)-5-(methylsulfinyl)-2-adamantyl]propanamide],IC50,[1],28 nM
"CC1(C)C(=O)N(C2C3CC4CC2CC(C(N)=O)(C4)C3)CC1COc1ccc(-n2ccnc2)cc1 (stereo not shown) [(E)-4-(4-{[4-(1H-imidazol-1-yl)phenoxy]methyl}-3,3-dimethyl-2-oxopyrrolidin-1-yl)adamantane-1-carboxamide]",IC50,[1],76 nM
O=C(O)C12CC3CC(C1)C(NC(=O)C1(c4ccccc4)CC1)C(C3)C2 (stereo not shown) [(E)-4-[(1-phenyl-cyclopropanecarbonyl)-amino]-adamantane-1-carboxylic acid],IC50,[1],102 nM
C[C@H](CCC(=O)O)[C@H]1CC[C@H]2[C@@H]3[C@H](O)C[C@@H]4C[C@H](O)CC[C@]4(C)[C@H]3CC[C@]12C [Example 490],IC50,11βHSD-1,2800 nM
O=C1CC(c2ccccc2)Oc2ccccc21 (stereo not shown) [Example 497],IC50,11βHSD-1; [2],18000 nM
Cc1c(Cl)cccc1S(=O)(=O)Nc1nc(CC(=O)N2CCN(C)CC2)cs1 [Example 500],IC50,11βHSD-1,96 nM
CCCC(=O)Cc1csc(NS(=O)(=O)c2cccc(Cl)c2C)n1 [Example 502],IC50,11βHSD-1; [2],14 nM
CC(C)c1nsc(NS(=O)(=O)c2ccc(Oc3ccccc3)cc2)n1 [Example 503],IC50,11βHSD-1; [2],219 nM
Cc1c(Cl)cccc1S(=O)(=O)Nc1ccc2c(c1)nc(C)n2C [Example 505],% @ 10 μM,"11βHSD-1; Table 1, @ 10 μM",110% @ 10
COc1cc(-c2nnc(C34CC5CC(CC(C5)C3)C4)n2C)cc(OC)c1OC [Example 507],IC50,11βHSD-1; [2],< 10 nM
CC(C)(C(=O)NC1C2CC3CC(C2)CC1C3)c1ccc(F)cc1 (stereo not shown) [Example 512],IC50,11βHSD-1; [2],< 1000 nM
O=C(c1ccc(-c2ccccc2[N+](=O)[O-])o1)N1CC[C@@H]2CCCC[C@@H]2C1 [Example 514],IC50,11βHSD-1; [2],7.7 nM
O=C(CS(=O)(=O)N1CCCC1)c1ccc(F)cc1 [Example 519],IC50,11βHSD-1; [2],94 nM
O=C(Cc1ccc(Cl)cc1)c1ccc(Br)cc1 [Example 520],IC50,11βHSD-1; [2],77 nM
CC(=O)Nc1ccc(OCC(=O)c2ccc(Cl)cc2)cc1 [Example 521],IC50,11βHSD-1; [2],153 nM
O=C(c1ccc(OC(F)(F)F)cc1)C1CCN(C(=O)c2ccc(F)cc2)CC1 [Example 523],IC50,11βHSD-1; [2],50 nM
CC(C)[C@@H]1CC[C@@H](C)C[C@@H]1O [Example 524],IC50,11βHSD-1; read-out: IC50,35000 nM
C[C@H](NC1=NC(=O)C(C)(C(F)(F)F)S1)c1ccccc1F (stereo partly shown) [Example 527],IC50,11βHSD-1,33 nM
CC(CC(F)(F)F)c1nnc(C23CCC(c4nnc(-c5ccccc5C(F)(F)F)n4C)(CC2)CC3)o1 (stereo not shown) [Example 531],IC50,11βHSD-1; [3],9 to 100 nM
CCOc1cc(NC(C)=O)ccc1-c1nnc(N(C)c2ccc(F)cc2)n1C [Example 532],IC50,11βHSD-1; [3],3.4 nM
CC1(C2CC2)Cc2nnc(-c3ccccc3Cl)n2CCS1 (stereo not shown) [Example 534],% @ 39 nM,"11βHSD-1; Table 3, @ 39 nM",71.8% @ 39
N#Cc1ccccc1CSc1nc(O)c(Cl)c2ccc(Cl)cc12 [Example 537],IC50,11βHSD-1; [3],2 nM
CCSc1nc(N2CCOC(C(=O)O)C2)ccc1C(=O)NC1C2CC3CC(C2)CC1C3 (stereo not shown) [Example 547],IC50,11βHSD-1; [3],6 nM
O=C(NC1C2CC3CC(C2)CC1C3)[C@H]1CCCN1S(=O)(=O)c1ccc(Cl)cc1 (stereo partly shown) [Example 548],IC50,11βHSD-1; [3],< 0.03 nM
O=C(NC1C2CC3CC1CC(O)(C3)C2)c1ccc(Oc2ccc(Cl)cn2)cc1 (stereo not shown) [Example 551],IC50,11βHSD-1; [3],~70 nM
Cc1cc(Cl)ccc1OCCCC(=O)N(C)C1C2CC3CC(C2)C(CO)C1C3 (stereo not shown) [Example 555],IC50,11βHSD-1; [3],1 nM
CC1(C2CC2)CN(C2C3CC4CC2CC(O)(C4)C3)C(=O)N1C1CC1 (stereo not shown) [Example 557],IC50,11βHSD-1; [3],3 nM
CN1C(=O)N(C2C3CC4CC(C3)CC2C4)C[C@@H]1C(C)(C)C (stereo partly shown) [Example 558],IC50,11βHSD-1; [3],< 50 nM
C[C@@H](c1ccc(Cl)cc1)N1CCN([C@H]2C3CC4CC2C[C@](O)(C4)C3)C1=O [Example 559],IC50,11βHSD-1; [3],12 nM
CC1(C)NC2(CCN(C(=O)NC3C4CC5CC(C4)CC3C5)CC2)c2c(Cl)cccc21 (stereo not shown) [Example 560],IC50,11βHSD-1; [3],< 50 nM
O=C(c1ccc(-c2cc(Cl)c(C[C@@H]3CCN(C4CCCCC4)C3=O)c(Cl)c2)cc1)N1CCN(CCF)CC1 [Example 564],IC50,11βHSD-1; [3],115 nM
O=C1[C@H](Cc2c(Cl)cc(-c3ccc(F)cc3)cc2Cl)CCN1C1CCc2n[nH]cc2C1 (stereo partly shown) [Example 570],IC50,11βHSD-1; [3],276 nM
O=C(c1ccc(-c2cc(Cl)c(CN3CCC(C4CCCCC4)C3=O)c(Cl)c2)cc1)N1CCN(CCF)CC1 (stereo not shown) [Example 572],IC50,11βHSD-1; [3],15.4 nM
C[C@@H](c1ccc2ccccc2c1)N1CCN(Cc2ccccc2)C1=O [Example 575],IC50,11βHSD-1; [3],2.9 nM
O=C(c1cnn(C2CCNCC2)c1C1CC1)N1CC[C@@H](c2ccccc2C(F)(F)F)C1 [Example 578],IC50,11βHSD-1; [3],< 30 nM
CC(=O)N1CCC2(CC(C3(c4ccc(Cl)cc4)CC3)=NO2)C1 (stereo not shown) [Example 579],IC50,11βHSD-1; [3],< 5000 nM
O=C1OC2(CCN(C(=O)C(O)c3ccc(Br)cc3F)C2)c2ccccc21 (stereo not shown) [Example 580],IC50,11βHSD-1; [3],< 1000 nM
O=C1OC2(CCN(C(=O)Nc3ccc(Cl)cc3F)C2)c2ccccc21 (stereo not shown) [Example 581],IC50,11βHSD-1; [3],< 20000 nM
O=C(N1CCC(c2cn[nH]c2)CC1)N1CCOc2ccc(Cl)cc21 [Example 583],IC50,11βHSD-1; [3],39 nM
Cc1ccc(C(=O)N(C2CC2)[C@H]2CC[C@H](CCO)CC2)c(F)c1 [Example 594],IC50,11βHSD-1; [3],2 nM
C[C@@H]1CN(c2ccc(C(N)(C(F)(F)F)C(F)(F)F)cc2)CCN1S(=O)(=O)c1ccc(C(C)(O)C(F)(F)F)cc1 (stereo partly shown) [Example 596],IC50,11βHSD-1; [3],< 10 nM
Cc1ccc(S(=O)(=O)N2CCCN(c3c(Cl)cncc3Cl)CC2)cc1 [Example 597],IC50,11βHSD-1; [3],910 nM
O=S(=O)(Cc1ccc(C(F)(F)F)cc1)N1CCN(c2ncccc2C(F)(F)F)CC1 [Example 598],IC50,11βHSD-1; [3],430 nM
Cc1c(Cl)cccc1S(=O)(=O)N1CCC[C@H](C(=O)NC2CCCCC2)C1 [Example 600],IC50,11βHSD-1; read-out: IC50,3 nM
O=C(N[C@H]1CCCN(S(=O)(=O)c2ccc(F)c3ccccc23)C1)N1C2CCC1CC(O)C2 (stereo partly shown) [Example 601],IC50,11βHSD-1; read-out: IC50,3 nM
N#Cc1ccc(C2CCN(S(=O)(=O)Nc3cccc(N)n3)CC2)cc1 [Example 671],Ki,11βHSD-1; read-out: Ki,< 1 nM
Cc1cc(N)nc(NS(=O)(=O)c2sc(-c3ccc(C#N)cc3)nc2C)c1 [Example 672],Ki,11βHSD-1; [4],2.8 nM
CC(O)c1cccc(NS(=O)(=O)c2ccc(-c3ccc(C#N)cc3)cc2)n1 (stereo not shown) [Example 673],Ki,11βHSD-1; [4],1.8 nM
Cc1cc(C)nc(NS(=O)(=O)N2CCN(c3ccc(C#N)cn3)CC2)c1 [Example 674],Ki,11βHSD-1,0.66 nM
O=S(=O)(Nc1ccnc(C2CC2)n1)c1ccc2ccccc2c1 [Example 680],IC50,11βHSD-1; [5],20 nM
Cc1c(S(=O)(=O)Nc2nc(C34CC5CC(CC(C5)C3)C4)cs2)sc2ccc(Cl)cc12 [Example 681],IC50,11βHSD-1; [5],18 nM
O=S(=O)(Nc1nc(C23CC4CC(CC(C4)C2)C3)cs1)c1cc2ccccc2s1 [Example 682],IC50,11βHSD-1; [5],42 nM
CC1(C)CC2CC(C)(CN2C(=O)c2cc(Cl)c(N)c(Cl)c2)C1 (stereo not shown) [Example 693],IC50,11βHSD-1; [6],4 nM
CC1(C)CC2CC(C)(CN2C(=O)c2ccc(C(C)(C)O)cc2)C1 (stereo not shown) [Example 696],IC50,11βHSD-1; [6],7 nM
COc1cc(C(=O)N2CCC(n3c(=O)[nH]c4ccccc43)CC2)ccc1C [Example 698],IC50,11βHSD-1; [6],110 nM
O=C(c1cnoc1-c1ccc(F)cc1)N1CCC(c2ccccc2)C1 (stereo not shown) [Example 700],IC50,"11βHSD-1; Table 5, Boyle, Current Opinion in Drug Discovery & Development 2008, 11(4), 495-511","8 − 10,000 nM"
O=C(N[C@H]1CCCN(S(=O)(=O)c2ccc(F)c3ccccc23)C1)N1CCC(O)CC1 [Example 703],IC50,11βHSD-1; [6],13 nM
O=S(=O)(Cc1ccc(C(F)(F)F)cc1)N1CCN(c2ncccc2C(F)(F)F)CC1 [Example 707],IC50,11βHSD-1; [6],430 nM
COc1ccc(S(=O)(=O)NCC(=O)c2ccc(C(C)(C)C)cc2)cc1 [Example 713],IC50,11βHSD-1; [6],82 nM
C[C@](O)(c1ccc(C(=O)N(C2CCC(c3cccnc3)CC2)C2CC2)cc1)C(F)(F)F (stereo partly shown) [Example 714],IC50,11βHSD-1,1.4 nM
CC(C)(Oc1ccc(Cl)cc1)C(=O)N[C@@H]1[C@@H]2C[C@@H]3C[C@H]1C[C@@](CS(N)(=O)=O)(C3)C2 [N-{(E)-5-[(aminosulfonyl)methyl]-2-adamantyl}-2-(4-chlorophenoxy)-2-methyl propanamide],IC50,[1],96 nM
